Results: patent US10336702B2, “Pharmaceutically active compounds” (BERGENBIO ASA, priority 2015, dated 2019)

Columns and labels:
Akt3 = target: T1, Akt3 (Homo sapiens, UniProt Q9Y243); test: Akt activation assay (PDK1-mediated activation, LANCE Ultra crosstide TR-FRET), Akt3; assay type: biochemical; details: read-out: Biological Assay 1 IC50 (nM) Akt3
T1 construct: unspecified tag, removed (detagged) (cleaved yes); purchased SignalChem and Proteros (Akt3); Merck Millipore (PDK1) 14-452 (PDK1); none given for Akt3
T1 sequence (Q9Y243 whole entry): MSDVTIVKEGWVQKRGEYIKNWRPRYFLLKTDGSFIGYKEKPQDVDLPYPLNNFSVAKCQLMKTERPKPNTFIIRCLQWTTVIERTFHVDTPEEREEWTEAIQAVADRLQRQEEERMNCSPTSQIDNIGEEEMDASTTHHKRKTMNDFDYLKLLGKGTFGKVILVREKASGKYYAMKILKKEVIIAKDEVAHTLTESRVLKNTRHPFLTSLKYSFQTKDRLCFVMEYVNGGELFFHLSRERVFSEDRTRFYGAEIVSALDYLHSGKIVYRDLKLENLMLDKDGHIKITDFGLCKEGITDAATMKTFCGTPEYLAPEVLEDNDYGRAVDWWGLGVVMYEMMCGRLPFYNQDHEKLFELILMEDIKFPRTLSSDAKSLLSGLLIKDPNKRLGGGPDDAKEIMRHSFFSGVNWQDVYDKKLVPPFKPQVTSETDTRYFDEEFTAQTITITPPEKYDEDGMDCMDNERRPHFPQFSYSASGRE
Method: (§1) Biological Assay 1: Akt Activation Assay
(§2) Addition of a Europium-labelled antibody specific to the phosphopeptide allows energy transfer from the Europium donor to the Ultra Ulight™ acceptor if close enough in proximity.
(§3) Full length active His6-tagged PDK1 was obtained from Merck Millipore (14-452).
(§4) 1× assay buffer (AB): 50 mM HEPES pH 7.5, 1 mM EGTA, 10 mM MgCl2, 0.01% Tween. Immediately before use, DTT to a concentration of 2 mM was added.
(§5) To prepare lipid vesicles: 1 mg/ml PtdIns(3,4,5)P3 solution (in 10 mM HEPES 7.5) was added to 16.7 mg/ml DOPS/DOPC mixture (in 10 mM HEPES pH 7.5) in a ratio of 1:8.3. MilliQ water was added to the solution to generate concentrations of 400 μM DOPS, 400 μM DOPC and 40 μM PtdIns(3,4,5)P3. The mixture was subjected to 5× freeze/thaw cycles and aliquots stored at −20° C.
(§6) 5 μL enzyme in 1×AB was incubated with 2.5 μL test compound. To start the reaction 2.5 μL reaction mix was added which consisted of PDK1, lipid preparations, crosstide and ATP in 1×AB. Final assay concentrations were as follows: 1% DMSO, 5 nM SignalChem Akt1/15 nM SignalChem Akt2/3 nM Signalchem Akt3/5 nM Proteros Akt1/5 nM proteros Akt2/5 nM Proteros Akt3, 5 nM PDK1, 5.5 μM DOPS, 5.5 μM DOPC, 0.55 μM PtdIns(3,4,5)P3, 100 μM ATP, 100 nM LANCE® Ultra Ulight™-Crosstide. After 30 min, the reaction was stopped using 5 μL 40 μM EDTA in 1× Detection buffer for 5 min. For detection, 5 μL 8 nM LANCE® Ultra Europium-anti-phospho-Crosstide antibody in 1× Detection buffer was added to each well and incubated for 1 h. Plates read with the EnVision® Multilabel Plate Reader, excitation at 320 nm and emission at 665 nm and 615 nm. Compound IC50 was determined using a 4-parameter equation.

Akt2 = target: T2, Akt2 (Homo sapiens, UniProt P31751); test: Akt activation assay (PDK1-mediated activation, LANCE Ultra crosstide TR-FRET), Akt2; assay type: biochemical; details: read-out: Biological Assay 1 IC50 (nM) Akt2
T2 construct: unspecified tag, removed (detagged) (cleaved yes); purchased SignalChem and Proteros (Akt2); Merck Millipore (PDK1) 14-452 (PDK1); none given for Akt2
T2 sequence (P31751 whole entry): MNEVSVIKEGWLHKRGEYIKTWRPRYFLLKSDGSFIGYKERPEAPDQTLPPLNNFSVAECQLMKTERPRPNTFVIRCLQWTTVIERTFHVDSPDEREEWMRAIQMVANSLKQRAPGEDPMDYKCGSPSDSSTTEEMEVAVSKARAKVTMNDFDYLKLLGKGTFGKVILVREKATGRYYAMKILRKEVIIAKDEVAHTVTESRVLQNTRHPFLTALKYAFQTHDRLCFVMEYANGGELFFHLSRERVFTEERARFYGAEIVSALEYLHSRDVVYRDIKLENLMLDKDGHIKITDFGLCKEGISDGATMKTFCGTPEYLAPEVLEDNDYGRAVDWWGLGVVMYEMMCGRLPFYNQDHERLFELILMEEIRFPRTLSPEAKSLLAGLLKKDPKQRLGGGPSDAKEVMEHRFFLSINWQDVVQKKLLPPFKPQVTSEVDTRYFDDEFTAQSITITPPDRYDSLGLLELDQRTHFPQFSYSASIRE
Method: as §1, §2, §3, §4, §5, §6

p-Akt3 in WM115 cells = target: T3, p-Akt3 in WM115 cells (Homo sapiens, UniProt Q9Y243); test: Phospho-Akt cellular SureFire assay, p-Akt3 in WM115 cells; assay type: cell-based; details: insulin stimulated, read-out: Biological Assay 2 IC50 (nM) Akt3 WM115
T3 construct: SureFire assays to detect cellular p-Akt1, p-Akt2 and p-Akt3 levels in WM115 cells (Akt2/3) and LNCaP cells (Akt1); endogenous in cells; host or cells: WM115 (ECACC 91061232), insulin-stimulated
T3 sequence (Q9Y243 whole entry): as the sequence (Q9Y243 whole entry) above
From the text: (§7) Biological Assay 2: Phospho-Akt (p-Akt) Cellular SureFire Assays
(§8) The following describes SureFire assays to detect cellular p-Akt1, p-Akt2 and p-Akt3 levels in WM115 cells (Akt2/3) and LNCaP cells (Akt1). In the case of Akt2 and Akt3, Streptavidin-coated donor beads capture a biotinylated anti-mouse antibody that in turn recognises a mouse total Akt antibody which is specific to each isoform. The protein A-conjugated acceptor beads capture an antibody that recognises the phosphoprotein. Similarly in the Akt1 kit, the donor and acceptor beads are used to capture each antibody pair consisting of an antibody that specifically recognises Akt1 as well as an antibody that recognises the phosphoprotein. In each case, close proximity of the beads allows energy transfer from donor to acceptor.
(§9) Custom kit from TGR/Perkin Elmer for Akt2/3 containing anti-(pThr308)Akt antibody and biotinylated anti-mouse capture antibody.
Total Akt3 antibody (R&D Systems MAB 1463)
(§10) WM115 cells (ECACC, 91061232) cultured in MEM culture media (M2279) supplemented with 2 mM L-glutamine (G7513), 1% non-essential amino acids (M7145), 1% sodium pyruvate (S8636) and 10% FBS (F0804)
(§11) Cell treatment: 1×10^5 WM115 cells or 5×10^4 LNCaP cells were seeded into each well of a 96 well poly-D-Lysine coated tissue culture plate and incubated overnight at 37° C.+5% CO2. Media was removed from cells and replaced with assay buffer consisting of the full culture media described above but with 0.1% FBS instead of 10% FBS. Only WM115 cells were stimulated at 37° C.+5% CO2 for 10 min with 5 μL insulin at a final concentration of 100 nM. Cells were incubated with 5 μL of test compound at a final DMSO concentration of 0.3% for 15 min at 37° C.+5% CO2. Cell lysis was carried out according to kit instructions.
(§12) Assay format (performed in subdued lighting): 4 μL cell lysate and 5 μL reaction buffer were incubated together in the dark at room temperature for 2 h. Reaction buffer was supplemented with a 1/5 dilution of activation buffer, a 1/50 dilution of acceptor beads and in the case of the custom kits, antibodies were added at dilutions of 1/20,000 for Akt2 and 1/2,000 for Akt3.
(§13) 2 μL dilution buffer, supplemented with a 1/20 dilution of donor beads was added to each well and incubated for a further 2 h. Plates were read with the EnVision® Multilabel Plate Reader and using the AlphaScreen settings. Compound IC50 was determined using a 4-parameter equation.

p-Akt2 in WM115 cells = target: T4, p-Akt2 in WM115 cells (Homo sapiens, UniProt P31751); test: Phospho-Akt cellular SureFire assay, p-Akt2 in WM115 cells; assay type: cell-based; details: insulin stimulated, read-out: Biological Assay 2 IC50 (nM) Akt2 WM115
T4 construct: SureFire assays to detect cellular p-Akt1, p-Akt2 and p-Akt3 levels in WM115 cells (Akt2/3) and LNCaP cells (Akt1); endogenous in cells; host or cells: WM115 (ECACC 91061232), insulin-stimulated
T4 sequence (P31751 whole entry): as the sequence (P31751 whole entry) above
From the text: as §7, §8, §9
Total Akt2 antibody (NEB UK, 5239)
as §10, §11, §12, §13

Akt1 = target: T5, Akt1 (Homo sapiens, UniProt P31749); test: Akt activation assay (PDK1-mediated activation, LANCE Ultra crosstide TR-FRET), Akt1; assay type: biochemical; details: read-out: Biological Assay 1 IC50 (nM) Akt1
T5 construct: unspecified tag, removed (detagged) (cleaved yes); purchased SignalChem and Proteros (Akt1); Merck Millipore (PDK1) 14-452 (PDK1); none given for Akt1
T5 sequence (P31749 whole entry): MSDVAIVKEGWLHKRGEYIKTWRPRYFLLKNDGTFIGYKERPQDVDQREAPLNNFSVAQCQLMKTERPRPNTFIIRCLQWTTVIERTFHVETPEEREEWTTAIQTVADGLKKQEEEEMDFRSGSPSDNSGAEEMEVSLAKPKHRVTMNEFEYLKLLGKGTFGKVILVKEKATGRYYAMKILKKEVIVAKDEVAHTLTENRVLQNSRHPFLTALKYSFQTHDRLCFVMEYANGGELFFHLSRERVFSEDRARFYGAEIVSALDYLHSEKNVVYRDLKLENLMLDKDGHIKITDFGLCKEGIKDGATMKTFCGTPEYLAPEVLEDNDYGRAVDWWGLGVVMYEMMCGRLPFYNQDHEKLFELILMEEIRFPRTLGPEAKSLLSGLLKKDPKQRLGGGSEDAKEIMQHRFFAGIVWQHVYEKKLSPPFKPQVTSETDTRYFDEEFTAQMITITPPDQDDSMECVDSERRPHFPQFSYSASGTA
Method: as §1, §2, §3, §4, §5, §6

Row | Structure (SMILES) | IC50 (Akt3) | IC50 (Akt2) | IC50 (p-Akt3 in WM115 cells) | IC50 (p-Akt2 in WM115 cells) | IC50 (Akt1)
1 | CCN(C(C)=O)[C@H]1CC[C@H](CC(=O)Nc2cc(-c3ccccc3)c(-c3ccc([C@]4(N)C[C@](C)(O)C4)cc3)cn2)CC1 [Example 108, N-(5-(4-(trans-1-amino-3-hydroxy-3-methylcyclobutyl)phenyl)-4-phenylpyridin-2-yl)-2-(trans-4-(N-ethylacetamido)cyclohexyl)acetamide] | 10 nM | 220 nM | 16 nM | 670 nM | –
2 | COC(=O)N(C)[C@H]1CC[C@H](CC(=O)Nc2cc(-c3ccccc3F)c(-c3ccc([C@]4(N)C[C@](C)(O)C4)cc3)cn2)CC1 [Example 96, Methyl (trans-4-(2-((5-(4-(trans-1-amino-3-hydroxy-3-methylcyclobutyl)phenyl)-4-(2-fluorophenyl)pyridin-2-yl)amino)-2-oxoethyl)cyclohexyl)(methyl)carbamate] | 18 nM | 140 nM | 51 nM | 1300 nM | –
3 | COC(=O)N(C)[C@H]1CC[C@H](CC(=O)Nc2cc(-c3ccsc3)c(-c3ccc([C@]4(N)C[C@](C)(O)C4)cc3)cn2)CC1 [Example 89, Methyl (trans-4-(2-((5-(4-(trans-1-amino-3-hydroxy-3-methylcyclobutyl)phenyl)-4-(thiophen-3-yl)pyridin-2-yl)amino)-2-oxoethyl)cyclohexyl)(methyl)carbamate] | – | – | 57 nM | 3000 nM | –
4 | COC1CCC(CC(=O)Nc2cnc(-c3ccc(C4(N)COC4)cc3)c(-c3ccccc3)c2)CC1 (mixture of isomers) [Example 21, N-(6-(4-(3-aminooxetan-3-yl)phenyl)-5-phenylpyridin-3-yl)-2-(4-methoxycyclohexyl)acetamide] | 210 nM | 1100 nM | – | – | > 55000 nM
5 | Cc1nncn1[C@H]1CC[C@H](CC(=O)Nc2cnc(-c3ccc(C(C)(C)N)cc3)c(-c3ccccc3)c2)CC1 [Example 23, N-(6-(4-(2-aminopropan-2-yl)phenyl)-5-phenylpyridin-3-yl)-2-(trans-4-(3-methyl-4H-1,2,4-triazol-4-yl)cyclohexyl)acetamide] | 430 nM | 11000 nM | – | – | > 30000 nM
6 | Cc1cscc1-c1cc(NC(=O)C[C@H]2CC[C@H](N(C)S(C)(=O)=O)CC2)cnc1-c1ccc(C2(N)CCC2)cc1 [Example 19, N-(6-(4-(1-aminocyclobutyl)phenyl)-5-(4-methylthiophen-3-yl)pyridin-3-yl)-2-(trans-4-(N-methylmethylsulfonamido)cyclohexyl)acetamide] | 6400 nM | > 26000 nM | – | – | > 30000 nM
7 | CC(=O)N[C@H]1CC[C@H](CC(=O)Nc2cnc(-c3ccc(C4(N)COC4)cc3)c(-c3ccccc3)c2)CC1 [Example 14, 2-(trans-4-acetamidocyclohexyl)-N-(6-(4-(3-aminooxetan-3-yl)phenyl)-5-phenylpyridin-3-yl)acetamide] | 600 nM | 1300 nM | – | – | > 30000 nM

Further lines, results first:

Row | IC50 (Akt3) | IC50 (Akt2) | IC50 (p-Akt3 in WM115 cells) | IC50 (p-Akt2 in WM115 cells) | IC50 (Akt1) | Structure (SMILES)
8 | 10 nM | 43 nM | – | – | 760 nM | C[C@]1(O)C[C@@](N)(c2ccc(-c3ncc(NC(=O)C[C@H]4CC[C@H](NC(=O)C(F)F)CC4)cc3-c3ccccc3)cc2)C1 [Example A5, N-(trans-4-(2-((6-(4-(trans-1-amino-3-hydroxy-3-methylcyclobutyl)phenyl)-5-phenylpyridin-3-yl)amino)-2-oxoethyl)cyclohexyl)-2,2-difluoroacetamide]
9 | 280 nM | 810 nM | – | – | 6900 nM | NC1(c2ccc(-c3ncc(NC(=O)C[C@H]4CC[C@H](NC(=O)C(F)F)CC4)cc3-c3ccccc3)cc2)CC1 [Example A42, N-(trans-4-(2-((6-(4-(1-aminocyclopropyl)phenyl)-5-phenylpyridin-3-yl)amino)-2-oxoethyl)cyclohexyl)-2,2-difluoroacetamide]
10 | 130 nM | 1400 nM | – | – | > 30000 nM | CC(C)(C(=O)N[C@H]1CC[C@H](CC(=O)Nc2cnc(-c3ccc(C4(N)COC4)cc3)c(-c3ccccc3)c2)CC1)C(F)(F)F [Example A6, N-(trans-4-(2-((6-(4-(3-aminooxetan-3-yl)phenyl)-5-phenylpyridin-3-yl)amino)-2-oxoethyl)cyclohexyl)-3,3,3-trifluoro-2,2-dimethylpropanamide]
11 | 68 nM | 3500 nM | – | – | > 30000 nM | CC(C)C(=O)N[C@H]1CC[C@H](CC(=O)Nc2cnc(-c3ccc(C(C)(C)N)cc3)c(-c3ccccc3)c2)CC1 [Example A22, N-(trans-4-(2-((6-(4-(2-aminopropan-2-yl)phenyl)-5-phenylpyridin-3-yl)amino)-2-oxoethyl)cyclohexyl)isobutyramide]
12 | 160 nM | 6800 nM | – | – | > 30000 nM | CC(C)(N)c1ccc(-c2ncc(NC(=O)C[C@H]3CC[C@H](NC(=O)C4CCC4)CC3)cc2-c2ccccc2)cc1 [Example A36, N-(trans-4-(2-((6-(4-(2-aminopropan-2-yl)phenyl)-5-phenylpyridin-3-yl)amino)-2-oxoethyl)cyclohexyl)cyclobutanecarboxamide]
13 | 15 nM | 140 nM | – | – | 3100 nM | NC1(c2ccc(-c3ncc(NC(=O)C[C@H]4CC[C@H](NC(=O)C5CC5)CC4)cc3-c3ccccc3)cc2)CCC1 [Example A39, N-(trans-4-(2-((6-(4-(1-aminocyclobutyl)phenyl)-5-phenylpyridin-3-yl)amino)-2-oxoethyl)cyclohexyl)cyclopropane-carboxamide]
14 | 20 nM | 370 nM | – | – | 9400 nM | NC1(c2ccc(-c3ncc(NC(=O)C[C@H]4CC[C@H](NC(=O)C(F)F)CC4)cc3-c3ccccc3)cc2)CCC1 [Example A35, N-(trans-4-(2-((6-(4-(1-aminocyclobutyl)phenyl)-5-phenylpyridin-3-yl)amino)-2-oxoethyl)cyclohexyl)-2,2-difluoroacetamide]
